# Results reported in PubChem BioAssay AID1645864 (Buhrlage Lab, Dana-Farber Cancer Institute and Novartis …, 2021).
# pIC50: −log10 of the molar value. Calls of active or inactive are those of the source.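 The calls were made as follows: active = maximal inhibition of USP17 at or above 30% in the confirmation dose-response, a value not among the printed readouts; inactive = the rest.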
# Target: Ubiquitin carboxyl-terminal hydrolase 17-like protein 5 (Homo sapiens) (UniProt A8MUK1)
# Test: ubiquitin-specific protease 17 inhibitors, concentration series, biochemical, verification of primary actives (AID 1645864)
# Details: purified USP17, ubiquitin-rhodamine cleavage fluorescence, 3 h
# Ubiquitin carboxyl-terminal hydrolase 17-like protein 5 (Homo sapiens), sequence (A8MUK1 whole entry, looked up): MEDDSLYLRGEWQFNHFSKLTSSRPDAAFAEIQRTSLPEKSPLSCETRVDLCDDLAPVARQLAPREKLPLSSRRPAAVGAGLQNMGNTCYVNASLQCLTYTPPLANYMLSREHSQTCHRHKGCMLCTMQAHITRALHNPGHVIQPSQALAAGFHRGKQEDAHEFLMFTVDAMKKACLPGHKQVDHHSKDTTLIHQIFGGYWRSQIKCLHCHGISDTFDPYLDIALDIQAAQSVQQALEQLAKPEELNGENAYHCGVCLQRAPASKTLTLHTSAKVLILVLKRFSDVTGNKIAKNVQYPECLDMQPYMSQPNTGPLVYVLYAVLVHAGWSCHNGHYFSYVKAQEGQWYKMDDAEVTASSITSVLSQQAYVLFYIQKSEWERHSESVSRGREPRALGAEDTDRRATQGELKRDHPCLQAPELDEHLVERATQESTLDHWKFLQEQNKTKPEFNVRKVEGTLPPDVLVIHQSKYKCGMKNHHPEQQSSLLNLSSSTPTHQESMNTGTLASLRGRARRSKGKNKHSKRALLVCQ
pIC50,IC50,Compound
5.42,–,CC(=O)Nc1cc2cc(-n3cccc3)ccc2oc1=O
–,> 50 µM (inactive),COc1ccc(CNC(=O)CN2C(=O)C(C)=C(c3ccc(C)cc3)S2(=O)=O)cc1
5.36,–,Cc1ccc(-n2c(=O)[nH]c3c(C(N)=O)nc(-c4cccnc4)nc32)cc1
–,> 50 µM (inactive),O=C(/C=C/c1ccccc1)N1CCN(C2=NS(=O)(=O)c3ccccc32)CC1
5.35,–,COc1ccc(S(=O)(=O)N2CCc3ccccc32)cc1C(=O)Nc1ccc2[nH]c(=O)[nH]c2c1
4.40,–,Cc1ccc(CN2CCCn3nc(C(=O)NCc4ccccc4C)cc3C2=O)cc1
4.60,–,COc1ccc2c(c1)CCc1c(C(=O)NCc3cccnc3)noc1-2
–,> 50 µM (inactive),COc1ccc(C(=O)Nc2ccc(S(=O)(=O)N3CCCCC3)cc2)cc1
4.32,–,N#Cc1cn(CC(=O)N2CCc3ccccc32)c2ccccc12
–,> 5 µM (inactive),COc1cc2c(cc1OC)C(COc1ccccc1OC)N(C(=O)c1ccc3ccccc3c1)CC2 (centres undefined)
4.33,–,COc1ccc(NC(=O)C2[C@@H]3C(=O)N(C4CCCCC4)C(=O)[C@@H]3[C@H]3c4ccccc4C=CN23)cc1 (some centres undefined)
5.24,–,Cc1ccccc1-c1nnc(-c2ccc(C(=O)NCc3ccccc3F)cc2)o1
5.91,–,COc1ccc(C(=O)Nc2nc(-c3ccc4c(c3)NC(=O)CO4)c(C)s2)cc1OC
–,> 50 µM (inactive),COc1ccc(Cl)cc1-n1nnc(C(=O)N2CCc3ccccc3C2)c1C
4.74,–,O=C(Cc1noc2ccccc12)NCC(=O)Nc1ccc(Cl)cc1
4.93,–,Cc1ccc(Cn2c(=O)n(CCC(=O)NCCc3ccccc3)c(=O)c3ccccc32)cc1
4.32,–,Cc1nc(-c2ccc(C(=O)NCc3ccc(F)cc3)cc2)cs1

# The next lines start with the compound.
Compound,pIC50,IC50
Fc1ccc(Cc2nc(-c3ccc4nncn4c3)no2)cc1,–,> 50 µM (inactive)
O=C(COc1ccccc1-c1nnc(-c2ccccc2)o1)Nc1ccc(F)cc1F,5.73,–
O=C(NCc1ccc(-c2nc3cnccc3o2)cc1)c1ccccc1Br,4.41,–
Cc1nc(Nc2ncc(C)s2)cc(C2CN(C(=O)Cc3ccccc3)CCO2)n1 (centres undefined),–,> 50 µM (inactive)
CN(C)S(=O)(=O)N1CCCC2(C1)Nc1cccnc1NC2=NC1CCCC1 (centres undefined),–,> 50 µM (inactive)
Cc1cccc(NC(=O)CSc2ccc(-n3cnc(-c4ccccc4)c3)nn2)c1,5.21,–
O=C1CC(c2ccco2)Cc2[nH]c(=O)c(-c3nc(-c4ccc(Cl)cc4)cs3)cc21 (centres undefined),–,> 50 µM (inactive)
COC(=O)[C@]1(O)O[C@@]2(C(=O)OC)c3c(oc4cc(C)cc(O)c4c3=O)[C@H]3c4c(oc5cc(C)cc(O)c5c4=O)C[C@H]1[C@H]32,–,> 50 µM (inactive)
Cc1cc(C(=O)N2CCN(C3CCN(Cc4ccc(Cl)o4)CC3)C(=O)C2)c(C)o1,–,> 50 µM (inactive)
COc1ccc(CCNC(=O)CCCCn2c(=O)c3ccccc3n(Cc3cccc(Cl)c3)c2=O)cc1OC,4.45,–
O=c1c(OC2O[C@H](CO)[C@H](O)[C@H](O)[C@H]2O)c(-c2ccc(O)cc2)oc2cc(O)cc(O)c12 (some centres undefined),4.33,–
CC1CCN(Cc2nnc(-c3cn(CC(=O)NC4CCCCC4)c4ccccc34)o2)CC1,–,> 50 µM (inactive)
O=C(NCCCc1nc2ccccc2n1Cc1c(Cl)cccc1Cl)c1ccco1,4.44,–
Cc1ccc(-c2nc(Cn3cnc4ccccc4c3=O)cs2)cc1,5.14,–
COc1ccc(-n2ccc(=O)c(-c3nc(-c4ccccc4F)no3)n2)cc1OC,–,> 50 µM (inactive)
COC(=O)c1cc2c(ccn2C)n1CC(=O)NC1CCCC1,–,> 50 µM (inactive)
COc1cc(-c2nc(C(N)=O)c3[nH]c(=O)n(-c4ccc(C)cc4)c3n2)cc(OC)c1OC,5.71,–
Oc1cc(OCc2cccc(C(F)(F)F)c2)ccc1-c1ccn[nH]1,4.67,–
Cc1ncncc1C(=O)N1CCCC(C)(c2ncc(Cc3cccc(F)c3)o2)C1 (centres undefined),–,> 50 µM (inactive)
Cc1ccc(-c2nc(Cn3nnc(-c4nc(-c5ccccn5)no4)c3C)c(C)o2)cc1,–,> 50 µM (inactive)
Cc1ccc2cc(CNc3ccccc3)c(=O)n(CC(=O)Nc3ccccc3C)c2c1,5.04,–
O=C(Nc1ncc2c(n1)-c1ccccc1CC2)C1CC1,4.68,–
